# Assay results: article PMC9898036, “VIP152 is a selective CDK9 inhibitor with pre-clinical in vitro and in vivo efficacy in chronic lymphocytic leukemia” (Leukemia, 2022)
# Where two headings read alike, the source gives them in different places.
# Experiments:
# Assay in all cases: DiscoverX KINOMEscan kinase profiling (468 assays)
# Type in all cases: binding
# human kinome [1] = target: human kinome (Homo sapiens, UniProt Q99558); settings: read-out: Percent Control
# Procedure, shortened: (§1)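 VIP152 was run in DMSO, alongside a DMSO control. Readout was qPCR of DNA-tagged kinase still bound to bead-immobilized biotinylated kinase ligands after compound competition.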
# human kinome [2] = target: human kinome (Homo sapiens, UniProt P27448); settings: MARK3; 100 nM; read-out: Percent Control
# Procedure, shortened: as §1
# human kinome [3] = target: human kinome (Homo sapiens, UniProt Q13177); settings: read-out: Percent Control
# Procedure, shortened: as §1
# human kinome [4] = target: human kinome (Homo sapiens, UniProt Q9NWZ3); settings: IRAK4; 100 nM; read-out: Percent Control
# Procedure, shortened: as §1
# human kinome [5] = target: human kinome (Homo sapiens, UniProt P36888, K663Q); settings: FLT3(K663Q); 100 nM; read-out: Percent Control
# Procedure, shortened: as §1
# human kinome [6] = target: human kinome (Homo sapiens, UniProt P36894); settings: BMPR1A; 100 nM; read-out: Percent Control
# Procedure, shortened: as §1
# human kinome [7] = target: human kinome (Homo sapiens, UniProt Q9H2X6); settings: HIPK2; 100 nM; read-out: Percent Control
# Procedure, shortened: as §1
# human kinome [8] = target: human kinome (Homo sapiens, UniProt Q9HCP0); settings: CSNK1G1; 100 nM; read-out: Percent Control
# Procedure, shortened: as §1
# human kinome [9] = target: human kinome (Homo sapiens, UniProt Q9NRH2); settings: kinase SNRK (Entrez SNRK); compound concentration 1000 nM; read-out: Percent Control
# Procedure, shortened: as §1
# human kinome [10] = target: human kinome (Homo sapiens, UniProt P51956); settings: read-out: Percent Control
# Procedure, shortened: as §1
# human kinome [11] = target: human kinome (Homo sapiens, UniProt Q15746); settings: read-out: Percent Control
# Procedure, shortened: as §1
# human kinome [12] = target: human kinome (Homo sapiens, UniProt Q8IYT8); settings: kinase ULK2 (Entrez ULK2); compound concentration 1000 nM; read-out: Percent Control
# Procedure, shortened: as §1
# human kinome [13] = target: human kinome (Homo sapiens, UniProt Q13557); settings: CAMK2D; 100 nM; read-out: Percent Control
# Procedure, shortened: as §1
# human kinome [14] = target: human kinome (Homo sapiens, UniProt O75747); settings: read-out: Percent Control
# Procedure, shortened: as §1
# human kinome [15] = target: human kinome (Homo sapiens, UniProt Q16566); settings: CAMK4; 100 nM; read-out: Percent Control
# Procedure, shortened: as §1
# human kinome [16] = target: human kinome (Homo sapiens, UniProt P00533, DEL752-759); settings: EGFR(S752-I759del); 100 nM; read-out: Percent Control
# Procedure, shortened: as §1
# human kinome [17] = target: human kinome (Homo sapiens, UniProt Q00526); settings: CDK3; 100 nM; read-out: Percent Control
# Procedure, shortened: as §1
# human kinome [18] = target: human kinome (Homo sapiens, UniProt Q96Q40); settings: read-out: Percent Control
# Procedure, shortened: as §1
# human kinome [19] = target: human kinome (Homo sapiens, UniProt Q9H2G2); settings: kinase SLK (Entrez SLK); compound concentration 1000 nM; read-out: Percent Control
# Procedure, shortened: as §1
# human kinome [20] = target: human kinome (Homo sapiens, UniProt Q9NRM7); settings: LATS2; 100 nM; read-out: Percent Control
# Procedure, shortened: as §1
# human kinome [21] = target: human kinome (Homo sapiens, UniProt Q9Y463); settings: DYRK1B; 100 nM; read-out: Percent Control
# Procedure, shortened: as §1
# human kinome [22] = target: human kinome (Homo sapiens, UniProt P42336); settings: read-out: Percent Control
# Procedure, shortened: as §1
# human kinome [23] = target: human kinome (Homo sapiens, UniProt Q14012); settings: CAMK1; 100 nM; read-out: Percent Control
# Procedure, shortened: as §1
# human kinome [24] = target: human kinome (Homo sapiens, UniProt P29597); settings: compound concentration 1000 nM, read-out: Percent Control
# Procedure, shortened: as §1
# human kinome [25] = target: human kinome (Homo sapiens, UniProt O75460); settings: ERN1; 100 nM; read-out: Percent Control
# Procedure, shortened: as §1
# human kinome [26] = target: human kinome (Homo sapiens, UniProt Q13153); settings: read-out: Percent Control
# Procedure, shortened: as §1
# human kinome [27] = target: human kinome (Homo sapiens, UniProt Q13873); settings: BMPR2; 100 nM; read-out: Percent Control
# Procedure, shortened: as §1
# human kinome [28] = target: human kinome (Homo sapiens, UniProt Q16512); settings: read-out: Percent Control
# Procedure, shortened: as §1
# human kinome [29] = target: human kinome (Homo sapiens, UniProt Q99759); settings: MAP3K3; 100 nM; read-out: Percent Control
# Procedure, shortened: as §1
# human kinome [30] = target: human kinome (Homo sapiens, UniProt P29323); settings: EPHB2; 100 nM; read-out: Percent Control
# Procedure, shortened: as §1
# Sequence of human kinome (Homo sapiens, UniProt O75747) (O75747 whole entry): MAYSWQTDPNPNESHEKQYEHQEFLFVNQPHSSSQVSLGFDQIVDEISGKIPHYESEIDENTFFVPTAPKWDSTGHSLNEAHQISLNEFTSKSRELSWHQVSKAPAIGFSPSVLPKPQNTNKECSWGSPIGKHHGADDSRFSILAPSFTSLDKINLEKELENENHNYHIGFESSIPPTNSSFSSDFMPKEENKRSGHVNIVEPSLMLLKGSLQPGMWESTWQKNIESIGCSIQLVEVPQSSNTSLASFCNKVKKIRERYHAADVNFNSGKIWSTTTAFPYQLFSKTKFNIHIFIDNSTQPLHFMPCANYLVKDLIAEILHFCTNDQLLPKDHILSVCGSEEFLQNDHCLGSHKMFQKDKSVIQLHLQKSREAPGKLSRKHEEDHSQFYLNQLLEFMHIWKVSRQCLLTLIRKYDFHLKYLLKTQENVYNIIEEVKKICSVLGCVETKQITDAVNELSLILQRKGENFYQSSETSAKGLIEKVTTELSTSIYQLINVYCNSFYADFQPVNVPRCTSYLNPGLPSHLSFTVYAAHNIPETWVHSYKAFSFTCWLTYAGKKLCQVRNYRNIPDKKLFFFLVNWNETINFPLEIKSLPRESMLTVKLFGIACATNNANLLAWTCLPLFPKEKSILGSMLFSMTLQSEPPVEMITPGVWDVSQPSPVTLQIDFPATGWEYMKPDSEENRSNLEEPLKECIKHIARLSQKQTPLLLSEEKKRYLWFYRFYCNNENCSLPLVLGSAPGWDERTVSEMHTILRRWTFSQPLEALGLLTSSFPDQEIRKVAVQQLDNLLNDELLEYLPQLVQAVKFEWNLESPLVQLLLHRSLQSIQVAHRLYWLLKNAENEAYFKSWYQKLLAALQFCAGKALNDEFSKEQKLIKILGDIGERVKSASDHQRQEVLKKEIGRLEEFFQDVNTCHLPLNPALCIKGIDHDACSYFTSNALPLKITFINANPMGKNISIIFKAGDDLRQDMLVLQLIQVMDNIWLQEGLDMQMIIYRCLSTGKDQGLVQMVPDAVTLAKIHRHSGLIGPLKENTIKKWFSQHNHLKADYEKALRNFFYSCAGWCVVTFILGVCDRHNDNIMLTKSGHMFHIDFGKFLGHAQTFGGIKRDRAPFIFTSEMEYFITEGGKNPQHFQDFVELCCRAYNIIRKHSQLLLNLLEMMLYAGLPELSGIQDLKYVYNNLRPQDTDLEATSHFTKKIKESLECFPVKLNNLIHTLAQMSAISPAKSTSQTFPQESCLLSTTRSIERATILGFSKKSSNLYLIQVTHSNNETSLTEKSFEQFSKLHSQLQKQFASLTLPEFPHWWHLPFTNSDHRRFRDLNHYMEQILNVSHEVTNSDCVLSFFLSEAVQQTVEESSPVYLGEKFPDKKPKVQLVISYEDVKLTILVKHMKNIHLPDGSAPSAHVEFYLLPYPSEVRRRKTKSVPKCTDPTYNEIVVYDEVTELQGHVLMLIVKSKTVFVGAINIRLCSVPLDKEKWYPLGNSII
# Sequence of human kinome (Homo sapiens, UniProt Q96Q40) (Q96Q40 whole entry): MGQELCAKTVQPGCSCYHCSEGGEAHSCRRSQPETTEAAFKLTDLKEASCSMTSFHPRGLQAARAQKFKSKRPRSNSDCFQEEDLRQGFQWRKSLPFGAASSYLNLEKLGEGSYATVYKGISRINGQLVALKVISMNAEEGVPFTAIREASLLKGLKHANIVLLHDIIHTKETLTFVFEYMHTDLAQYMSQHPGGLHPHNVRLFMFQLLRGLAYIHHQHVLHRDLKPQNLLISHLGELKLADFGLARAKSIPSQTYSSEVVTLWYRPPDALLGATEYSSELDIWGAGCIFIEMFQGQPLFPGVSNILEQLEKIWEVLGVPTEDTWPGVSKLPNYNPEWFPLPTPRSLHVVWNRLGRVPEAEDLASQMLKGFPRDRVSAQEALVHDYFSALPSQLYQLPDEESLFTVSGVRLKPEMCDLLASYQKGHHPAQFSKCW
# Sequence of human kinome (Homo sapiens, UniProt Q13153) (Q13153 whole entry): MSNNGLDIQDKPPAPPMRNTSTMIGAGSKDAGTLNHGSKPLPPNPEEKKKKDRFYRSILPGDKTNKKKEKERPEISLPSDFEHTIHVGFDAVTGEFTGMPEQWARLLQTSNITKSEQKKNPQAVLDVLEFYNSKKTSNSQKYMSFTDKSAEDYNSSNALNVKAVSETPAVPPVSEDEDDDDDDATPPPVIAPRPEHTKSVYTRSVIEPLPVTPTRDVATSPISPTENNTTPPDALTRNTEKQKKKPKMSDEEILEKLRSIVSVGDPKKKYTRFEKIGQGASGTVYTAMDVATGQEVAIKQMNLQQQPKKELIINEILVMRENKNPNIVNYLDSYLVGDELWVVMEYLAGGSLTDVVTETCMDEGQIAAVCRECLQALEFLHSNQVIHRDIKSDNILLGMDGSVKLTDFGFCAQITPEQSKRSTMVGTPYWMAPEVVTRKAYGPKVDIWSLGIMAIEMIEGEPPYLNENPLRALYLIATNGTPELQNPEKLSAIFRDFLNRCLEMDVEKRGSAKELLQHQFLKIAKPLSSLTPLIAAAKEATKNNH
# Sequence of human kinome (Homo sapiens, UniProt Q16512) (Q16512 whole entry): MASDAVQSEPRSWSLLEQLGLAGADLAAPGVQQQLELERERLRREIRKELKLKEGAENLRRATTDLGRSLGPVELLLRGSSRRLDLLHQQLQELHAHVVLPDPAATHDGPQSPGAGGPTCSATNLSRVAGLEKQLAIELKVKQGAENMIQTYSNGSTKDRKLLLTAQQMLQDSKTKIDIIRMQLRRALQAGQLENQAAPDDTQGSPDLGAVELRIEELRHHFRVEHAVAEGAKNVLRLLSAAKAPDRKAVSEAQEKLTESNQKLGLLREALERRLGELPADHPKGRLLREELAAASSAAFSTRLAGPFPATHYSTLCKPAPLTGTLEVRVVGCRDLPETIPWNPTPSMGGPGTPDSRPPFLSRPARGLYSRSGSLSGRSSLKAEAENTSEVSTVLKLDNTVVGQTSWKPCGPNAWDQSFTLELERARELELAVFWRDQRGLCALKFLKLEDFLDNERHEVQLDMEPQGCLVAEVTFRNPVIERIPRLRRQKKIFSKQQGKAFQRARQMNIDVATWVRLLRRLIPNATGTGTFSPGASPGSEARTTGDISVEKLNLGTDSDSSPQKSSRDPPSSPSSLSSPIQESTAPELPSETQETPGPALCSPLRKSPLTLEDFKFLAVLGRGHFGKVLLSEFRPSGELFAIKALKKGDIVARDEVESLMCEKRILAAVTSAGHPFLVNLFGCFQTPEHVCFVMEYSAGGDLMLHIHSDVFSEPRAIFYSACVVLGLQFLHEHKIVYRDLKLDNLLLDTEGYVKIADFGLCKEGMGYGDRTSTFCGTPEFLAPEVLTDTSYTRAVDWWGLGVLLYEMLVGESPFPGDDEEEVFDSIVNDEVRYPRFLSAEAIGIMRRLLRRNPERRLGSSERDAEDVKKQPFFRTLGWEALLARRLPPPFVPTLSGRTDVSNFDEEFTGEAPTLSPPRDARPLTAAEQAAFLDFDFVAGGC
# Sequence of human kinome (Homo sapiens, UniProt P42336) (P42336 whole entry): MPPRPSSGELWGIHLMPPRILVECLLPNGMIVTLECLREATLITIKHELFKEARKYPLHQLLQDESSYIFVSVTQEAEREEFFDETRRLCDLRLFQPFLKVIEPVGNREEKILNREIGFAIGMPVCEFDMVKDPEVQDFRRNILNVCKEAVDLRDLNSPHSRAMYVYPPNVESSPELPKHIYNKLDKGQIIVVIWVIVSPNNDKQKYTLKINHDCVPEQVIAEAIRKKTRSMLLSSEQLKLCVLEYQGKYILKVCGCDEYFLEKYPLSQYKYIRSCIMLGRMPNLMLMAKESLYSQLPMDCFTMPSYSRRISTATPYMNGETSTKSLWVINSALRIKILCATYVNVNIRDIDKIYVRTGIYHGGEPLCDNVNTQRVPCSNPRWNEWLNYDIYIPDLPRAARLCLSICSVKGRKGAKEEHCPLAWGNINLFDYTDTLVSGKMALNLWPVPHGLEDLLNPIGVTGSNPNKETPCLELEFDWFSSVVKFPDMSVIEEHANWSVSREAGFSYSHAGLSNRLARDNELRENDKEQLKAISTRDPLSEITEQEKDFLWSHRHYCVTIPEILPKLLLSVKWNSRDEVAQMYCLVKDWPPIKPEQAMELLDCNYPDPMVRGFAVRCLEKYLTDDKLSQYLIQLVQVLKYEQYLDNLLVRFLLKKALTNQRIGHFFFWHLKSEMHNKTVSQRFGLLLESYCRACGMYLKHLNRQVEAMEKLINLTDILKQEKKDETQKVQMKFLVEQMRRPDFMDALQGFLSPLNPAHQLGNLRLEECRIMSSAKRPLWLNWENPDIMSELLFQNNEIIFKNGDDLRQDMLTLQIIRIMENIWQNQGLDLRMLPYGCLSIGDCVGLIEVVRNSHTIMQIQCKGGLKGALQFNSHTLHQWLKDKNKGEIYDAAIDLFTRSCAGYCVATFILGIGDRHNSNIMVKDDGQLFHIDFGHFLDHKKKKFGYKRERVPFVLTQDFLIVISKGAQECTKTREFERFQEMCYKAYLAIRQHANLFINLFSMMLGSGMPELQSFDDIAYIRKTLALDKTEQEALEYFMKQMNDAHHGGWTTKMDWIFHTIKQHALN
# Sequence of human kinome (Homo sapiens, UniProt P51956) (P51956 whole entry): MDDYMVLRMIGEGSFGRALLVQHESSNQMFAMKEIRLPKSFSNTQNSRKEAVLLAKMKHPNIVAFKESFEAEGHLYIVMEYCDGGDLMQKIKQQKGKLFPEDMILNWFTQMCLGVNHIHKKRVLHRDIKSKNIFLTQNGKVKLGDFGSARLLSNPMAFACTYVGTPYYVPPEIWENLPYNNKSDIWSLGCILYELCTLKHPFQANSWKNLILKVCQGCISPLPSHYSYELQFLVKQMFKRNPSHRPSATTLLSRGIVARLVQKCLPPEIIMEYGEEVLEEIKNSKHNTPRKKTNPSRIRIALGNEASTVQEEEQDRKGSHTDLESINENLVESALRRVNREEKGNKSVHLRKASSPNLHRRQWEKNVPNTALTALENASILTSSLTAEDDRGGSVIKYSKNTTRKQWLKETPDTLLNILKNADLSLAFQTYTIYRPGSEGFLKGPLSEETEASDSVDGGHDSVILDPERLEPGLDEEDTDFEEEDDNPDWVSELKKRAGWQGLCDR
smiles,measurement,setting,value
COc1cc(F)ccc1-c1cc(Nc2cc(CS(C)(=N)=O)ccn2)ncc1F (stereo not shown) [VIP152],remaining binding at 0.1 µM,"human kinome [1]; NIK (Entrez MAP3K14), 100 nM",87%
same,remaining binding at 1 µM,"human kinome [1]; kinase NIK (Entrez MAP3K14), compound concentration 1000 nM",88%
same,remaining binding at 0.1 µM,human kinome [2],99%
same,remaining binding at 0.1 µM,"human kinome [3]; PAK2, 100 nM",81%
same,remaining binding at 1 µM,"human kinome [3]; kinase PAK2 (Entrez PAK2), compound concentration 1000 nM",100%
same,remaining binding at 0.1 µM,human kinome [4],100%
same,remaining binding at 0.1 µM,human kinome [5],100%
same,remaining binding at 0.1 µM,human kinome [6],100%
same,remaining binding at 0.1 µM,human kinome [7],89%
same,remaining binding at 0.1 µM,human kinome [8],100%
same,remaining binding at 1 µM,human kinome [9],90%
same,remaining binding at 0.1 µM,"human kinome [10]; NEK3, 100 nM",98%
same,remaining binding at 1 µM,"human kinome [10]; kinase NEK3 (Entrez NEK3), compound concentration 1000 nM",62%
same,remaining binding at 0.1 µM,"human kinome [11]; MYLK, 100 nM",95%
same,remaining binding at 1 µM,"human kinome [11]; kinase MYLK (Entrez MYLK), compound concentration 1000 nM",77%
same,remaining binding at 1 µM,human kinome [12],97%
same,remaining binding at 0.1 µM,human kinome [13],100%
same,remaining binding at 0.1 µM,"human kinome [14]; PIK3C2G, 100 nM",100%
same,remaining binding at 1 µM,"human kinome [14]; kinase PIK3C2G (Entrez PIK3C2G), compound concentration 1000 nM",94%
same,remaining binding at 0.1 µM,human kinome [15],100%
same,remaining binding at 0.1 µM,human kinome [16],100%
same,remaining binding at 0.1 µM,human kinome [17],100%
same,remaining binding at 0.1 µM,"human kinome [18]; PFTAIRE2 (Entrez CDK15), 100 nM",100%
same,remaining binding at 1 µM,"human kinome [18]; kinase PFTAIRE2 (Entrez CDK15), compound concentration 1000 nM",70%
same,remaining binding at 1 µM,human kinome [19],16%
same,remaining binding at 0.1 µM,human kinome [20],99%
same,remaining binding at 0.1 µM,human kinome [21],100%
same,remaining binding at 0.1 µM,"human kinome [22]; PIK3CA, 100 nM",100%
same,remaining binding at 1 µM,"human kinome [22]; kinase PIK3CA (Entrez PIK3CA), compound concentration 1000 nM",95%
same,remaining binding at 0.1 µM,human kinome [23],100%
same,remaining binding at 1 µM,human kinome [24]; kinase TYK2(JH1domain-catalytic) (Entrez TYK2),44%
same,remaining binding at 1 µM,human kinome [24]; kinase TYK2(JH2domain-pseudokinase) (Entrez TYK2),4.8%
same,remaining binding at 0.1 µM,human kinome [25],88%
same,remaining binding at 0.1 µM,"human kinome [26]; PAK1, 100 nM",100%
same,remaining binding at 1 µM,"human kinome [26]; kinase PAK1 (Entrez PAK1), compound concentration 1000 nM",100%
same,remaining binding at 0.1 µM,human kinome [27],99%
same,remaining binding at 0.1 µM,"human kinome [28]; PKN1, 100 nM",100%
same,remaining binding at 1 µM,"human kinome [28]; kinase PKN1 (Entrez PKN1), compound concentration 1000 nM",88%
same,remaining binding at 0.1 µM,human kinome [29],100%
same,remaining binding at 0.1 µM,human kinome [30],100%
